According to ChEMBL document CHEMBL1125065, “Synthesis and anti-HIV activity of carbocyclic 2',3'-didehydro-2',3'-dideoxy 2,6-disubstituted purine nucleosides” (J Med Chem, 1990):
In brackets after ≈: the same amount, converted by molar mass.

Assays:
MT2 [1] = test: Effective concentration that increases formazan production in infected MT-2 cells; assay type: functional, cell-based; conditions: Homo sapiens
P388 = test: Inhibitory concentration of compound for P-388 Leukemia cell culture; assay type: functional; conditions: Mus musculus, read-out: ED50 (the source's name)
[2] = Therapeutic index for the compound was determined (IC50/EC50); conditions: read-out: TI
MT2 [3] = test: Inhibitory concentration that reduces formazan production in uninfected MT-2 cells.; conditions: Homo sapiens
CCRF-CEM [4] = test: Inhibitory effect against synthesis of p24 gag protein in CEM cells.; assay type: functional, Homo sapiens
CCRF-CEM [5] = test: Percent reduction in p24 gag expression in CEM cells; assay type: functional, Homo sapiens

SMILES | EC50 (MT2 [1]) [µg/mL] | EC50 (P388) [µg/mL] | selectivity ratio [2] | IC50 (MT2 [3]) [µg/mL] | p24 synthesis (CCRF-CEM [4]) [ng/mL] | Reduction (CCRF-CEM [5]) [%]
Nc1nc(N)c2ncn(C3C=CC(CO)C3)c2n1 (stereo not given) | 4.7 (≈ 19.1 µM) | > 100 | > 26.6 | > 125 |  | 
Nc1nc(N)c2nnn(C3C=CC(CO)C3)c2n1 (stereo not given) |  | > 100 |  |  |  | 
Nc1nc(O)c2nnn(C3C=CC(CO)C3)c2n1 (stereo not given) |  | 4.5 (≈ 18.1 µM) |  |  |  | 
Nc1nc(Cl)c2ncn(C3CCC(CO)C3)c2n1 (stereo not given) | > 100 | > 100 |  | > 100 |  | 
Nc1nc(O)c2nnn(C3CCC(CO)C3)c2n1 (stereo not given) |  | 51 (≈ 204 µM) |  |  |  | 
Nc1nc(Cl)c2nnn(C3C=CC(CO)C3)c2n1 (stereo not given) |  | 1 (≈ 3.75 µM) |  |  |  | 
Nc1nc(N)c2nnn(C3CCC(CO)C3)c2n1 (stereo not given) |  | > 100 |  |  |  | 
Nc1nc(Cl)c2nnn(C3CCC(CO)C3)c2n1 (stereo not given) |  | 18 (≈ 67 µM) |  |  |  | 
Nc1nc(Cl)c2ncn(C3C=CC(CO)C3)c2n1 (stereo not given) | 0.4 (≈ 1.51 µM) | 75 (≈ 282 µM) | 17.3 | 6.97 (≈ 26.2 µM) |  | 
Nc1nc(O)c2ncn(C3CCC(CO)C3)c2n1 (stereo not given) | > 100 | > 100 |  | > 100 |  | 
Nc1nc(N)c2ncn(C3CCC(CO)C3)c2n1 (stereo not given) | 16.7 (≈ 67.3 µM) | 80 (≈ 322 µM) | > 5.9 | > 100 |  | 
Nc1nc2c(ncn2[C@H]2C=C[C@@H](CO)C2)c(=O)[nH]1 [CARBOVIR] | 0.19 (≈ 0.768 µM) | > 100 | 220 | 41.8 (≈ 169 µM) | 28 | >99.97
Nc1ccn([C@H]2CC[C@@H](CO)O2)c(=O)n1 [ZALCITABINE] | 0.29 (≈ 1.37 µM) |  | 152 | 44 (≈ 208 µM) |  | 
Cc1cn([C@H]2C[C@H](N=[N+]=[N-])[C@@H](CO)O2)c(=O)[nH]c1=O [ZIDOVUDINE] |  |  |  |  | 32 | >99.96
